Experiment [1] has as its target T1, PDE3A catalytic domain (PDE3Acat) (Homo sapiens, UniProt Q14432).
T1 construct: made in house; host or cells: Sf9 insect cells (baculovirus, Bac-to-Bac / Gateway)
Nature of the experiment: Phosphodiesterase inhibitory activity, PDE3 ([3H]cAMP, recombinant enzyme). It is filed as biochemical. Conditions: 30° C., 20 minutes, read-out: IC50(μmol/L) PDE3.

Experiment [2] has as its target T2, PDE4Bcat (Homo sapiens, UniProt Q07343).
T2 construct: made in house; host or cells: Sf9 insect cells (baculovirus, Bac-to-Bac / Gateway)
In words: Phosphodiesterase inhibitory activity, PDE4 ([3H]cAMP, recombinant enzyme). It is filed as biochemical. Conditions: 30° C., 20 minutes, read-out: IC50(μmol/L) PDE4.

The structures appear in SMILES notation. Bounds are passed on as bounds.

T1 sequence (Q14432 674-1093 limits assumed): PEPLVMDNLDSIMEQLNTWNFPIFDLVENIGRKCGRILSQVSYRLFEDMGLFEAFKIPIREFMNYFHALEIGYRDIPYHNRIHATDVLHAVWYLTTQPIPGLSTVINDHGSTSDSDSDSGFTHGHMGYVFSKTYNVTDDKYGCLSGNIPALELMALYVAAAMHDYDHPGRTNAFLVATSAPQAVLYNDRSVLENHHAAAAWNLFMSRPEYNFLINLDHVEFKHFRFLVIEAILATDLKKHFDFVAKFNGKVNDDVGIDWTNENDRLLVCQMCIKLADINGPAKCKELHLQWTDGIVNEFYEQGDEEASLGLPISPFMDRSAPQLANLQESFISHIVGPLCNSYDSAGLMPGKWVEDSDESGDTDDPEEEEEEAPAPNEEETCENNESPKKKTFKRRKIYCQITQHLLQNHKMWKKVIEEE
T2 sequence (Q07343 330-659 limits assumed): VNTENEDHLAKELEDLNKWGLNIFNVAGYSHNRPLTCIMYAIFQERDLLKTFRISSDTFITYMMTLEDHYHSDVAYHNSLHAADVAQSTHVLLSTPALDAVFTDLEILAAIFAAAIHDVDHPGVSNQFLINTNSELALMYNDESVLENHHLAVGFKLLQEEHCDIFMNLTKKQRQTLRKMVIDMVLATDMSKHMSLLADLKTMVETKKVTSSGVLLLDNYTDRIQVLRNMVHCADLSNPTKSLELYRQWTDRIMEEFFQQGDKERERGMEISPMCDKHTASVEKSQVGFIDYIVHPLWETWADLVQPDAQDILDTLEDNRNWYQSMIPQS

Take `COc1ccc(-c2ccc(=O)n(CCCCOc3ccc(C4=NNC(=O)CC4)c(F)c3F)n2)c2cc(C(F)(F)F)oc12` [Example 274, 2-[4-[2,3-Difluoro-4-(6-oxo-1,4,5,6-tetrahydropyridazin-3-yl)phenoxy]butyl]-6-(7-methoxy-2-trifluoromethylbenzofuran-4-yl)-2H-pyridazin-3-one]: the IC50 in experiment [1] and in experiment [2] was < 0.1 µmol/L in each case.
For `CCc1ccc2c(-c3ccc(=O)n(CCCCOc4ccc(C5=NNC(=O)C5(C)C)cc4)n3)ccc(OC)c2n1` [Example 282, 6-(2-Ethyl-8-methoxyquinolin-5-yl)-2-[4-[4-(4,4-dimethyl-5-oxo-4,5-dihydro-1H-pyrazol-3-yl)phenoxy]butyl]-2H-pyridazin-3-one], the figures for the IC50 in experiment [1] and in experiment [2] were ≥ 10 µmol/L and 0.1 to 1 µmol/L, respectively.
For `CCc1ccc2c(C3=NN(CCCCOc4ccc(C5=NNC(=O)CC5C)cc4)C(=O)CC3C)ccc(OC)c2n1` (single isomer, unassigned) [Example 341, 6-(2-Ethyl-8-methoxyquinolin-5-yl)-5-methyl-2-[4-[4-(4-methyl-6-oxo-1,4,5,6-tetrahydropyridazin-3-yl)phenoxy]butyl]-4,5-dihydro-2H-pyridazin-3-one] the same measures were 1 to 10 µmol/L and < 0.1 µmol/L.
As for `COc1ccc(-c2ccc(=O)n(CCCCOc3ccc(C4=NNC(=O)CC4C)cc3)n2)c2ccc(C(F)(F)F)nc12` (stereo not drawn) [Example 321, 6-(8-Methoxy-2-trifluoromethylquinolin-5-yl)-2-[4-[4-(4-methyl-6-oxo-1,4,5,6-tetrahydropyridazin-3-yl)phenoxy]butyl]-2H-pyridazin-3-one], the IC50 in experiment [1] and in experiment [2] was 0.1 to 1 µmol/L throughout.
Take `CCc1nc2c(OC)ccc(-c3ccc(=O)n(CCCCOc4ccc(C5=NNC(=O)CC5C)c(F)c4F)n3)c2o1` (stereo not drawn) [Example 334, 6-(2-Ethyl-4-methoxybenzooxazol-7-yl)-2-[4-[2,3-difluoro-4-(4-methyl-6-oxo-1,4,5,6-tetrahydropyridazin-3-yl)phenoxy]butyl]-2H-pyridazin-3-one]: the figures for the IC50 in experiment [1] and in experiment [2] were < 0.1 µmol/L and 0.1 to 1 µmol/L, respectively.
Turning to `CCc1ccc2c(-c3ccc(=O)n(CCCOc4ccc(C5=NNC(=O)CC5)c(F)c4F)n3)ccc(OC)c2n1` [Example 326, 6-(2-Ethyl-8-methoxyquinolin-5-yl)-2-[3-[2,3-difluoro-4-(6-oxo-1,4,5,6-tetrahydropyridazin-3-yl)phenoxy]propyl]-2H-pyridazin-3-one], the IC50 in experiment [1] and in experiment [2] was 1 to 10 µmol/L each time.
With `CCc1ccc2c(-c3ccc(=O)n(CCCCOc4ccc(C5=NNC(=O)CC5C)cc4F)n3)ccc(OC)c2n1` (single isomer, unassigned; (-)) [Example 329, (−)-6-(2-Ethyl-8-methoxyquinolin-5-yl)-2-[4-[2-fluoro-4-(4-methyl-6-oxo-1,4,5,6-tetrahydropyridazin-3-yl)phenoxy]butyl]-2H-pyridazin-3-one], the IC50 in experiment [1] and in experiment [2] was < 0.1 µmol/L throughout.
For the compound `COc1ccc(-c2ccc(=O)n(CCCCOc3ccc(C4=NNC(=O)C4(C)C)c(F)c3F)n2)c2cc(C(F)(F)F)oc12` [Example 275, 2-[4-[2,3-Difluoro-4-(4,4-dimethyl-5-oxo-4,5-dihydro-1H-pyrazol-3-yl)phenoxy]butyl]-6-(7-methoxy-2-trifluoromethylbenzofuran-4-yl)-2H-pyridazin-3-one], the IC50 in experiment [1] was < 0.1 µmol/L; in experiment [2] it was 0.1 to 1 µmol/L.
For `COc1ccc(C2=NN(CCCCOc3ccc(C4=NNC(=O)CC4C)cc3)C(=O)CC2C)c2sc(C(F)(F)F)nc12` (stereo not drawn) [Example 313, 6-(4-Methoxy-2-trifluoromethylbenzothiazol-7-yl)-5-methyl-2-[4-[4-(4-methyl-6-oxo-1,4,5,6-tetrahydropyridazin-3-yl)phenoxy]butyl]-4,5-dihydro-2H-pyridazin-3-one] the same measures were 0.1 to 1 µmol/L and < 0.1 µmol/L.
For `COc1ccc(-c2ccc(=O)n(CCCCOc3ccc(C4=NNC(=O)C4(C)C)c(F)c3F)n2)n2cc(C(F)(F)F)nc12` [Example 338, 2-[4-[2,3-Difluoro-4-(4,4-dimethyl-5-oxo-4,5-dihydro-1H-pyrazol-3-yl)phenoxy]butyl]-6-(8-methoxy-2-trifluoromethylimidazo[1,2-a]pyridin-5-yl)-2H-pyridazin-3-one] the same measures were 0.1 to 1 µmol/L and 0.1 to 1 µmol/L.
Take `COc1ccc(C2=NN(CCCCOc3ccc(C4=NNC(=O)CC4C)cc3)C(=O)CC2C)c2cc(C(F)(F)F)sc12` (stereo not drawn) [Example 311]: the IC50 in experiment [1] was < 0.1 µmol/L; in experiment [2], 1 to 10 µmol/L.
For `COc1ccc(-c2ccc(=O)n(CCCCOc3ccc(C4=NNC(=O)CC4C)c(F)c3F)n2)c2sc(C(F)(F)F)nc12` (stereo not drawn) [Example 307, 2-[4-[2,3-Difluoro-4-(4-methyl-6-oxo-1,4,5,6-tetrahydropyridazin-3-yl)phenoxy]butyl]-6-(4-methoxy-2-trifluoromethylbenzothiazol-7-yl)-2H-pyridazin-3-one] the same measures were < 0.1 µmol/L and < 0.1 µmol/L.
For `CCc1nc2c(OC)ccc(-c3ccc(=O)n(CCCCOc4ccc(C5=NNC(=O)C5(C)C)c(F)c4F)n3)c2o1` [Example 335, 6-(2-Ethyl-4-methoxybenzooxazol-7-yl)-2-[4-[2,3-difluoro-4-(4,4-dimethyl-5-oxo-4,5-dihydro-1H-pyrazol-3-yl)phenoxy]butyl]-2H-pyridazin-3-one] the same measures were 0.1 to 1 µmol/L and 0.1 to 1 µmol/L.
Turning to `CCc1ccc2c(-c3ccc(=O)n(CCCCOc4ccc(C5=NNC(=O)CC5)cc4F)n3)ccc(OC)c2n1` [Example 284, 6-(2-Ethyl-8-methoxyquinolin-5-yl)-2-[4-[2-fluoro-4-(6-oxo-1,4,5,6-tetrahydropyridazin-3-yl)phenoxy]butyl]-2H-pyridazin-3-one], the IC50 in experiment [1] is < 0.1 µmol/L; in experiment [2], 0.1 to 1 µmol/L.
For `COc1ccc(-c2ccc(=O)n(CCCCOc3ccc(C4=NNC(=O)CC4)c(F)c3F)n2)n2cc(C(F)(F)F)nc12` [Example 337, 2-[4-[2,3-Difluoro-4-(6-oxo-1,4,5,6-tetrahydropyridazin-3-yl)phenoxy]butyl]-6-(8-methoxy-2-trifluoromethylimidazo[1,2-a]pyridin-5-yl)-2H-pyridazin-3-one] the same measures were 0.1 to 1 µmol/L and 0.1 to 1 µmol/L.
For `COc1ccc(-c2ccc(=O)n(CCCCOc3ccc(C4=NNC(=O)C4(C)C)c(F)c3F)n2)c2nc(C(F)(F)F)nn12` [Example 306, 2-[4-[2,3-Difluoro-4-(4,4-dimethyl-5-oxo-4,5-dihydro-1H-pyrazol-3-yl)phenoxy]butyl]-6-(5-methoxy-2-trifluoromethyl-[1,2,4]triazolo[1,5-a]pyridin-8-yl)-2H-pyridazin-3-one] the same measures were 1 to 10 µmol/L and 1 to 10 µmol/L.
For `COc1ccc(-c2ccc(=O)n(CCCCOc3ccc(C4=NNC(=O)CC4)c(F)c3F)n2)c2sc(C(F)(F)F)nc12` [Example 308, 2-[4-[2,3-Difluoro-4-(6-oxo-1,4,5,6-tetrahydropyridazin-3-yl)phenoxy]butyl]-6-(4-methoxy-2-trifluoromethylbenzothiazol-7-yl)-2H-pyridazin-3-one] the same measures were < 0.1 µmol/L and < 0.1 µmol/L.
In the case of `COc1ccc(C2=NN(CCCCOc3ccc(C4=NNC(=O)CC4C)cc3)C(=O)CC2C)c2cc(C(F)(F)F)oc12` (stereo not drawn) [Example 310], the IC50 in experiment [1] is 0.1 to 1 µmol/L; in experiment [2], < 0.1 µmol/L.
For `CCc1ccc2c(-c3ccc(=O)n(CCOc4ccc(C5=NNC(=O)CC5C)c(F)c4F)n3)ccc(OC)c2n1` (stereo not drawn) [Example 324, 6-(2-Ethyl-8-methoxyquinolin-5-yl)-2-[2-[2,3-difluoro-4-(4-methyl-6-oxo-1,4,5,6-tetrahydropyridazin-3-yl)phenoxy]ethyl]-2H-pyridazin-3-one] the same measures were < 0.1 µmol/L and 0.1 to 1 µmol/L.
For `CCc1nc2c(OC)ccc(-c3ccc(=O)n(CCCCOc4ccc(C5=NNC(=O)CC5)c(F)c4F)n3)c2o1` [Example 333, 6-(2-Ethyl-4-methoxybenzooxazol-7-yl)-2-[4-[2,3-difluoro-4-(6-oxo-1,4,5,6-tetrahydropyridazin-3-yl)phenoxy]butyl]-2H-pyridazin-3-one], the IC50 in experiment [1] is < 0.1 µmol/L; in experiment [2], 0.1 to 1 µmol/L.
For `CCc1ccc2c(-c3ccc(=O)n(CCCOc4ccc(C5=NNC(=O)C5(C)C)c(F)c4F)n3)ccc(OC)c2n1` [Example 327, 6-(2-Ethyl-8-methoxyquinolin-5-yl)-2-[3-[2,3-difluoro-4-(4,4-dimethyl-5-oxo-4,5-dihydro-1H-pyrazol-3-yl)phenoxy]propyl]-2H-pyridazin-3-one] the same measures were 1 to 10 µmol/L and 0.1 to 1 µmol/L.
For `CCc1ccc2c(-c3ccc(=O)n(CCCCOc4ccc(C5=NNC(=O)CC5)cc4)n3)ccc(OC)c2n1` [Example 281, 6-(2-Ethyl-8-methoxyquinolin-5-yl)-2-[4-[4-(6-oxo-1,4,5,6-tetrahydropyridazin-3-yl)phenoxy]butyl]-2H-pyridazin-3-one] the same measures were 0.1 to 1 µmol/L and 0.1 to 1 µmol/L.
Take `COc1ccc(-c2ccc(=O)n(CCCCOc3ccc(C4=NNC(=O)CC4)c(F)c3F)n2)c2cc(C(F)(F)F)sc12` [Example 331, 2-[4-[2,3-Difluoro-4-(6-oxo-1,4,5,6-tetrahydropyridazin-3-yl)phenoxy]butyl]-6-(7-methoxy-2-trifluoromethylbenzo[b]thiophen-4-yl)-2H-pyridazin-3-one]: the IC50 in experiment [1] is < 0.1 µmol/L; in experiment [2] it was 1 to 10 µmol/L.
As to `COc1ccc(-c2ccc(=O)n(CCCCOc3ccc(C4=NNC(=O)CC4C)cc3)n2)c2ccc(C(C)C)nc12` (stereo not drawn) [Example 270, 6-(8-Methoxy-2-isopropylquinolin-5-yl)-2-[4-[4-(4-methyl-6-oxo-1,4,5,6-tetrahydropyridazin-3-yl)phenoxy]butyl]-2H-pyridazin-3-one], the IC50 in experiment [1] is < 0.1 µmol/L; in experiment [2], 0.1 to 1 µmol/L.

For the origin of these results see patent publication US20100160335A1, “PYRIDAZINONE DERIVATIVE AND PDE INHIBITOR CONTAINING THE SAME AS ACTIVE INGREDIENT” (KYORIN PHARMACEUTICAL CO., LTD., priority 2007, published 2010).
